These results are taken from paper PMC8745332, “Synthesis, Molecular Docking and Biological Characterization of Pyrazine Linked 2-Aminobenzamides as New Class I Selective Histone Deacetylase (HDAC) Inhibitors with Anti-Leukemic Activity” (International Journal of Molecular Sciences, 2021).

Data set [1] concerns the target T1, human HDAC2 (Homo sapiens, UniProt Q92769).
T1 construct: purchased ENZO Life Sciences AG (Lausen, CH)
The data set is described as follows: In vitro HDAC2 inhibition assay, fluorogenic p53 peptide Ac-RHKK(Acetyl)-AMC. It counts as biochemical. The settings on record: 3 nM HDAC2, 20 µM substrate, 30 min, 37 °C. How it is done:
(§1) Recombinant human HDAC1, HDAC2, and HDAC3/NCOR1 were purchased from ENZO Life Sciences AG (Lausen, CH). Recombinant human HDAC 4, HDAC5, HDAC7, HDAC9 and HDAC11 were produced by Barinka lab in Prague, as described before. Recombinant human HDAC8 was produced by Romier et al. (IGBMC, Univ. Strasbourg), as described in [55].
(§2) The in vitro testing on recombinant HDACs 1-3 were performed with a fluorogenic peptide derived from p53 (Ac-RHKK(Acetyl)-AMC). The measurements were performed in an assay buffer (50 mM Hepes, 150 mM NaCl, 5 mM MgCl2, 1 mM TCEP and 0.2 mg/mL BSA, pH 7.4 adjusted with NaOH) at 37 °C. Inhibitors at different concentrations were incubated with 10 nM HDAC1, 3 nM HDAC2 or 3 nM HDAC3 (final concentration) for at least 5 min. The reaction was started with the addition of the fluorogenic substrate (20 µM final concentration) and incubated for 30 min for HDAC2 and HDAC3 and 90 min for HDAC1. The reaction was stopped with a solution of 1 mg/mL trypsin and 20 µM SAHA in 1 mM HCl and incubated for 1 h at 37 °C. […] The received fluorescence intensities were normalized with uninhibited reaction as 100% and the reaction without enzyme as 0%. A nonlinear regression analysis was done to determine the IC50 value.

Data set [2] concerns the target T2, human HDAC3/NCOR1 (Homo sapiens, UniProt O15379).
T2 construct: purchased ENZO Life Sciences AG (Lausen, CH)
The data set is described as follows: In vitro HDAC3 inhibition assay, fluorogenic p53 peptide Ac-RHKK(Acetyl)-AMC. Format: biochemical. Here is the method:
as §1, §2

Data set [3] addresses T3, human HDAC4 (Homo sapiens, UniProt P56524).
T3 construct: made in house
The data set is described as follows: HDAC4 dose response, substrate Abz-SRGGK(thio-TFA)FFRR-NH2. It counts as biochemical. How it is done: as §1
(§3) The determination of dose response curves for HDAC4, 5, 7 and 9 was performed as previously described with compound 4 as substrate (Abz-SRGGK(thio-TFA)FFRR-NH2). The substrate concentration was 50 µM and the enzyme concentration was 10 nM for HDAC4 and HDAC5, 5 nM for HDAC7 and 20 nM for HDAC9. HDAC11 inhibition assay was performed as described before. The fluorescence intensity was recorded with an Envision 2104 Multilabel Plate Reader (PerkinElmer, Waltham, MA) with an excitation wavelength of 330 ± 75 nm and an emission wavelength of 430 ± 8 nm.

In data set [4] the target is T4, human HDAC5 (Homo sapiens, UniProt Q9UQL6).
T4 construct: made in house
The data set is described as follows: HDAC5 dose response, substrate Abz-SRGGK(thio-TFA)FFRR-NH2. It counts as biochemical. Here is the method: as §1, §3

In data set [5] the target is T5, human HDAC7 (Homo sapiens, UniProt Q8WUI4).
T5 construct: made in house
T5 sequence (Q8WUI4 1-952): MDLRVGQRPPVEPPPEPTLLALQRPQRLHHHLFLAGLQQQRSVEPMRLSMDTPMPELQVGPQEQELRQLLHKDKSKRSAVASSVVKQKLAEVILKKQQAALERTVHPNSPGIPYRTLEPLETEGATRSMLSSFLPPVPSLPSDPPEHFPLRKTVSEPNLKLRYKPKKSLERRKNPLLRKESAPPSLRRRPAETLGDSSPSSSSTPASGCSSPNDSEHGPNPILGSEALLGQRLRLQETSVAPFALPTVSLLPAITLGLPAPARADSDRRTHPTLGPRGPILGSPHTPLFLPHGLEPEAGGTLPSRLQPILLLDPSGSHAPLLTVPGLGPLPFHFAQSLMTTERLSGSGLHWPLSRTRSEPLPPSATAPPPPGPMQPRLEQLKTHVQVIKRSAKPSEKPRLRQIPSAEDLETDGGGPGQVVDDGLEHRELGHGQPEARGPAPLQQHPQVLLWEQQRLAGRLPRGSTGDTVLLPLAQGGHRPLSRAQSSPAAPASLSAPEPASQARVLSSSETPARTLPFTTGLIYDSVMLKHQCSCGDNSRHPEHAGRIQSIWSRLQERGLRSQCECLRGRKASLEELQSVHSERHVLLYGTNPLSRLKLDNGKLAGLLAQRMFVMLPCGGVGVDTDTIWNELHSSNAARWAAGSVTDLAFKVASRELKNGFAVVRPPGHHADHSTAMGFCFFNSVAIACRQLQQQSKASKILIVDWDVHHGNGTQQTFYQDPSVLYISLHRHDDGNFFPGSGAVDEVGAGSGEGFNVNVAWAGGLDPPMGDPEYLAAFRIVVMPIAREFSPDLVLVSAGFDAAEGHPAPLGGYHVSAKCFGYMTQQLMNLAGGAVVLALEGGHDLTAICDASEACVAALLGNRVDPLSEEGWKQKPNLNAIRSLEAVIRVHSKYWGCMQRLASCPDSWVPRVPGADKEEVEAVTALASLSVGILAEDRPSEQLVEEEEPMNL
The data set can be described thus: HDAC7 dose response, substrate Abz-SRGGK(thio-TFA)FFRR-NH2. It counts as biochemical. How it is done:
as §1, §3

For data set [6], the target named is T6, human HDAC9 (Homo sapiens, UniProt Q9UKV0).
T6 construct: made in house
The data set is described as follows: HDAC9 dose response, substrate Abz-SRGGK(thio-TFA)FFRR-NH2. Format: biochemical. Here is the method:
as §1, §3

In data set [7] the target is T7, human HDAC11 (Homo sapiens, UniProt Q96DB2).
T7 construct: made in house
T7 sequence (Q96DB2 1-347): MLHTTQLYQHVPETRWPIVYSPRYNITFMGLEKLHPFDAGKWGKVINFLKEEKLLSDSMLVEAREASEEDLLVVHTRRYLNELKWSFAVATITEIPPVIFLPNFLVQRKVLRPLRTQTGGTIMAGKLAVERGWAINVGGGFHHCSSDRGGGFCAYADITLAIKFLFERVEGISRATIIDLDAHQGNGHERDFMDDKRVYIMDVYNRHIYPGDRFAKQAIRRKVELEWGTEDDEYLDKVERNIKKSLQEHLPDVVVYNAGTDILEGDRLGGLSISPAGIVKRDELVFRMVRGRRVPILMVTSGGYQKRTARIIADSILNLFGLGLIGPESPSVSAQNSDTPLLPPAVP
The data set can be described thus: HDAC11 inhibition assay. Format: biochemical. How it is done:
as §1, §3

Data set [8] is described as follows: in vitro. The following applies: human, HEK293 cells.
Description: The cells were incubated for 48 h with the HDACi at a concentration of 50 µM, and cell viability was determined by the Alamar Blue assay.
To determine the cytotoxicity of the developed compounds on the human epithelial kidney, cell line HEK293 was used. HEK293 cells (DSMZ Braunschweig, ACC305) were incubated at 37 °C in a humidified incubator with 5% CO2 in Dulbecco’s Modified Eagle Medium (DMEM) supplemented with 10% FCS and 5 mM glutamine. Cells were seeded out at 1.5 x 10^3 cells per well in a 96-well cell culture plate (TPP, Switzerland). The compounds to be tested were added immediately to the medium at 50 µM. After 24 h, Alamar Blue reagent (Invitrogen, CA) was added according to the manufacturer’s instructions and incubated again for 21 h before samples were analyzed. Detection of viable cells which convert the resazurine reagent into the highly fluorescent resorufin was performed by using a FLUOstarOPTIMA microplate reader (BMG Labtec) with the following filter set: Ex 530 nm/Em 590 nm. Measurements were performed in triplicate and data are means with standard deviation <12%.
The test system of data set [9] is HEL cells. The data set is described as follows: Cytotoxicity/apoptosis in HEL cells expressing JAK2V617F, annexin V-FITC/PI flow cytometry. Format: cell-based, human. Here is the method:
(B) Cells were stained with annexin V-FITC/PI and analyzed via flow cytometry. […] IC50 values were determined for 19f. Results represent three independent experiments.
This erythroleukemia cell model carries a mutation in Janus kinase-2 (JAK2V617F) and HDACi are considered as therapeutic options to control the transformation of this disease into AML [53].
All leukemic cells were kept in RPMI-1640 medium supplemented with 10% FBS and 1%penicillin/streptomycin (Sigma-Aldrich, Taufkirchen, Germany) under standard culture conditions at 37 °C and a 5% CO2 humidified atmosphere. Cells were authenticated as mentioned by us.
Background: Flow cytometry measures light scatter and fluorescence of single cells or particles in a stream.

T1 sequence (Q92769 whole entry): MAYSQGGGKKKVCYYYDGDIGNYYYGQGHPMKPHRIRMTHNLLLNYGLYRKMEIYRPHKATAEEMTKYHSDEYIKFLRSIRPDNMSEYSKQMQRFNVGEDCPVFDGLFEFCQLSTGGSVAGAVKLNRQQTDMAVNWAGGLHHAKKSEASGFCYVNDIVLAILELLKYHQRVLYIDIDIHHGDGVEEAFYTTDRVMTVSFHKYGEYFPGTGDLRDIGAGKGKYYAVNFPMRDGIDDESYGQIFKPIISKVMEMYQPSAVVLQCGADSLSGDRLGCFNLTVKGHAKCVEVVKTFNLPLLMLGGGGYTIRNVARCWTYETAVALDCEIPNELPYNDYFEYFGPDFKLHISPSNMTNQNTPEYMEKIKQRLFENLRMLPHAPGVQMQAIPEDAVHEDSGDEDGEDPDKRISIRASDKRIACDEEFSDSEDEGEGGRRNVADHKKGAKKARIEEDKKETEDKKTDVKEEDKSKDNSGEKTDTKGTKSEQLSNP
T2 sequence (O15379 whole entry): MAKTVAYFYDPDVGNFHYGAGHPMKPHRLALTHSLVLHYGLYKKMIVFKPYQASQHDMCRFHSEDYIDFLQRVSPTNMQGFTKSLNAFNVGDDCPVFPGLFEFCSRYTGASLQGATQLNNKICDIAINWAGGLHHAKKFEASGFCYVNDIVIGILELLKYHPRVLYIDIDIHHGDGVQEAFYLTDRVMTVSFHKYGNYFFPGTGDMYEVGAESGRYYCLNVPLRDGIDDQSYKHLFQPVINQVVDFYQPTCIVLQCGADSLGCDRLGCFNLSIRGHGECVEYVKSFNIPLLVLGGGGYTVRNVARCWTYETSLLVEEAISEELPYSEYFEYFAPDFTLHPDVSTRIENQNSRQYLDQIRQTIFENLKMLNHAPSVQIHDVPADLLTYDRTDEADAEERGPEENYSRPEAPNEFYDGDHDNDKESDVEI
T2 sequence (O75376 395-489 partner limits assumed): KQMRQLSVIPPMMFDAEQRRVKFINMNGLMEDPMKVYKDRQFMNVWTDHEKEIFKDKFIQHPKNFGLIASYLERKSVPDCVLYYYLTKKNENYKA
T3 sequence (P56524 whole entry): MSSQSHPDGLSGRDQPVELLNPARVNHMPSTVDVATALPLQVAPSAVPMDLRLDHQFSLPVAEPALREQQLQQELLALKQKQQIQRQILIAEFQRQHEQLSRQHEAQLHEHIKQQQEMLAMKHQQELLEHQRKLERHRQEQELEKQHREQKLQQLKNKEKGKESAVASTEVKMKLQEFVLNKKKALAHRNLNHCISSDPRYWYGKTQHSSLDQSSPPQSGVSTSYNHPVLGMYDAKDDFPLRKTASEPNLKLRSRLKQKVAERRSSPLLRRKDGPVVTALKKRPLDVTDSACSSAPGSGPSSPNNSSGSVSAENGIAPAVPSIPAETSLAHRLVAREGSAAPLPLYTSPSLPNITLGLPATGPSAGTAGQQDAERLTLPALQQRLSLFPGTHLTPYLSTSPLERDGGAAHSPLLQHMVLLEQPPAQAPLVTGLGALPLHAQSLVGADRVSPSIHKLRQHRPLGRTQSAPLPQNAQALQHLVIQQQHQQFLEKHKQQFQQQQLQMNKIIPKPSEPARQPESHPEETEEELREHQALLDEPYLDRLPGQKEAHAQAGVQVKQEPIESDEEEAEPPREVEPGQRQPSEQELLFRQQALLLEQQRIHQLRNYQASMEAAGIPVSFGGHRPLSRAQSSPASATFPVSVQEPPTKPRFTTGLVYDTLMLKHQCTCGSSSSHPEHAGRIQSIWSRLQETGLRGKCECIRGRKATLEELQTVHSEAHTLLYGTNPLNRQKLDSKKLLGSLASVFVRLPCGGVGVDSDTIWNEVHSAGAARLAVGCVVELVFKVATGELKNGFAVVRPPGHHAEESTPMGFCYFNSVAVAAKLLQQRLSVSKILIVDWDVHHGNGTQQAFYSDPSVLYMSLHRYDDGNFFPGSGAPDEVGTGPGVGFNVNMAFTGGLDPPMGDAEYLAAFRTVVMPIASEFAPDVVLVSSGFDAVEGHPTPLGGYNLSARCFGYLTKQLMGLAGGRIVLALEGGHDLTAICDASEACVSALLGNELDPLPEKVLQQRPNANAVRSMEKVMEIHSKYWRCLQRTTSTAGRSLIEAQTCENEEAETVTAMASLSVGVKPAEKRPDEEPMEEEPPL
T6 sequence (Q9UKV0 whole entry): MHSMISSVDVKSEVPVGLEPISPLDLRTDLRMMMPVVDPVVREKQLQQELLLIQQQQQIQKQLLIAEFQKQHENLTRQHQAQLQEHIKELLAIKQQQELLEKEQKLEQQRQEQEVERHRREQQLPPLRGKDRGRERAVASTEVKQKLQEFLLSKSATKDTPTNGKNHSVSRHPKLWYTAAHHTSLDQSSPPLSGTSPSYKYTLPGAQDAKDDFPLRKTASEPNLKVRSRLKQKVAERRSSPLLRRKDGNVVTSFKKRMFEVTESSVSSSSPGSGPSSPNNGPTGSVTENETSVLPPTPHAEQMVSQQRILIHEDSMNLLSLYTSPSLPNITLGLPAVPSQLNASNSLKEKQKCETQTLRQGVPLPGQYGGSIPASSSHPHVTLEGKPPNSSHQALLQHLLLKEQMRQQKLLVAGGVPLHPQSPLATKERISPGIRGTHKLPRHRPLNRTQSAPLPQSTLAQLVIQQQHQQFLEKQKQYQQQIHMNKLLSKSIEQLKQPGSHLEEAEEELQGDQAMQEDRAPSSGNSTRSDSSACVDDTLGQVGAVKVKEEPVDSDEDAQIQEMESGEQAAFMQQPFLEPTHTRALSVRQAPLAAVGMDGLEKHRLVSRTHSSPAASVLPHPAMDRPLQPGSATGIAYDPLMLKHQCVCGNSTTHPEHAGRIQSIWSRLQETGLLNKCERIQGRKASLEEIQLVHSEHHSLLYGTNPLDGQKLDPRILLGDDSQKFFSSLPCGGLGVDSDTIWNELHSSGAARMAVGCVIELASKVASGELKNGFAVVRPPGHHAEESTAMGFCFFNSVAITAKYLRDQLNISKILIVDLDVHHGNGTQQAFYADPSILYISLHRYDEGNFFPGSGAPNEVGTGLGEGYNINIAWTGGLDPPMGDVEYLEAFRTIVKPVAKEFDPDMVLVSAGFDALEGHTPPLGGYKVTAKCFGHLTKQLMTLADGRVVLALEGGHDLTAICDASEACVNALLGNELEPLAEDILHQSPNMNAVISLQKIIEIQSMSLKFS
T4 sequence (Q9UQL6 whole entry): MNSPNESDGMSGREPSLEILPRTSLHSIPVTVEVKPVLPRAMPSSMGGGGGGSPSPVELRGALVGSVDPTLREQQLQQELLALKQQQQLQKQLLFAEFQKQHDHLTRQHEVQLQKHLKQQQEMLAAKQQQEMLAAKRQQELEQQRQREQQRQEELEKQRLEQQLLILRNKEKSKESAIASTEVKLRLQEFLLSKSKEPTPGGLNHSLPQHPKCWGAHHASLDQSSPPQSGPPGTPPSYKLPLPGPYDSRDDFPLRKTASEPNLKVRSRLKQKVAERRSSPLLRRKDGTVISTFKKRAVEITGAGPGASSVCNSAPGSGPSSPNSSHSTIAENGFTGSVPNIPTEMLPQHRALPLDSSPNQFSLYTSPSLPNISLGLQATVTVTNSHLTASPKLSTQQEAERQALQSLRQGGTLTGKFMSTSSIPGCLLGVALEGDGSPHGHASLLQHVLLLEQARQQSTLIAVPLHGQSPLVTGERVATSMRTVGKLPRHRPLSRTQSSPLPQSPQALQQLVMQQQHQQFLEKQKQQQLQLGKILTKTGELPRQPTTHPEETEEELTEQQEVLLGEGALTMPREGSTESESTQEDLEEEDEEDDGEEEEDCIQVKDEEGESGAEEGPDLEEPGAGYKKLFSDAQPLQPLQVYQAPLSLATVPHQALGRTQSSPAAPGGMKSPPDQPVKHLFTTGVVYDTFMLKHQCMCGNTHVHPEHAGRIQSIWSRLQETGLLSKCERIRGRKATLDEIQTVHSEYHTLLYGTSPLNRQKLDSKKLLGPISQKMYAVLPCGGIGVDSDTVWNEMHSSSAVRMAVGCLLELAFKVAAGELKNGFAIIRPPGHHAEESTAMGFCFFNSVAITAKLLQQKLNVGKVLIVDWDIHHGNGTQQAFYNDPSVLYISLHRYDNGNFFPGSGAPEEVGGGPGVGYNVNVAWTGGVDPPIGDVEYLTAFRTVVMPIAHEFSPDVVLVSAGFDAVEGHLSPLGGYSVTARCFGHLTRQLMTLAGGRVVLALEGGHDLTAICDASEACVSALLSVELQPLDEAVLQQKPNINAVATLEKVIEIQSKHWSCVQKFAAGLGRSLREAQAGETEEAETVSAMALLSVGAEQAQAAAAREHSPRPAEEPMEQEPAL

In the case of `Cn1cc(CCN2CCN(c3cnc(C(=O)Nc4cc(-c5cccs5)ccc4N)cn3)CC2)c2ccccc21` [21a, N-(2-Amino-5-(thiophen-2-yl)phenyl)-5-(4-(2-(1-methyl-1H-indol-3-yl)ethyl)piperazin-1-yl)pyrazine-2-carboxamide], the half-maximal inhibitory concentration (IC50) (usually the concentration needed to halve the response being measured) was 2.47 ± 0.22 µM in data set [1]; greater than 20 µM in data set [3]; greater than 20 µM in data set [4]; greater than 20 µM in data set [5]; greater than 20 µM in [6]; 7.5 ± 1 µM in [7]. The inhibition (usually the drop in the measured response relative to a control, in per cent) at 1 µM in data set [2] (read-out: HDAC3 % inhibition @ 1 µM) worked out at 0%. The viability (commonly the share of living cells, or the viability signal relative to a control) at 48 h, 50 µM in data set [8] stood at 94.4%.
For `Nc1ccccc1NC(=O)c1cnc(N2CCN(Cc3c[nH]c4ccccc34)CC2)cn1` [19f, 5-(4-((1H-indol-3-yl)methyl)piperazin-1-yl)-N-(2-aminophenyl)pyrazine-2-carboxamide], the IC50 was 0.28 ± 0.01 µM in data set [1]; 0.31 ± 0.01 µM in data set [2] (3 nM HDAC3, 20 µM substrate, 30 min, 37 °C); greater than 20 µM in data set [3]; greater than 20 µM in [4]; greater than 20 µM in data set [5]; greater than 20 µM in data set [6]. Also, the IC50 in data set [7] was greater than 20 µM; in data set [9] (Homo sapiens, 0.25 µM to 5 µM, 24 h, read-out: IC50 for toxic effects on HEL cells), 0.925 µM. For the same compound, the “apoptosis in HEL cell cultures” value in data set [9] (0.5 µM, 48 h) was 26%. The compound further returned a viability at 48 h, 50 µM in [8] of 76.1%.
